In patent publication US20240391965A1, “STAPLED ANTIMICROBIAL PEPTIDES (STAMPS) AND USES THEREOF” (Lytica Therapeutics, Inc., priority 2021, published 2024):
Converted amounts (≈) assume the structure as drawn. Starred links: 1 amine or outer side, 2 acyl side, 3 side chain; linkers in the order of their positions; H or OH if unused. Positions of bridges follow the written chain, without caps; N, C: chain ends. Residues, ends and D or L forms follow the SMILES beside them. mXylylene = c1cc(C[*:1])cc(C[*:2])c1; pXylylene = c1cc(C[*:2])ccc1C[*:1]; X1 = C(=CC[*:2])C[*:1]

How the values were obtained:
[1] = 90 minute cytotoxicity assay (LDH release), renal toxicity; format: cell-based
From the text: (§1) In some embodiments, a peptide provided herein has renal toxicity that is at least 10% (e.g., at least 15%, at least 20%, at least 25%, at least 30%, at least 35%, at least 40%, at least 45%, at least 50%, at least 55%, at least 60%, at least 65%, at least 65%, at least 70%, at least 75%, at least 80%, at least 85%, at least 90%, at least 95%, at least 99%) lower than the renal toxicity of the reference. The renal toxicity of a peptide can be measured in vitro using a renal proximal tubule epithelial cell (RPTEC) renal toxicity assay.
(§2) Cell culture: RPTEC were maintained in MEM media supplemented with growth factors. HEPG2 cell line was maintained in Eagle's Minimum Essential Medium (EMEM) supplemented with fetal bovine serum to a final concentration of 10%.
90 minute cytotoxicity assay: Cells were plated in a 96-well format, and after overnight incubation, media was replaced with fresh media. Serial dilutions of StAMPs from a 5 mg/mL water stock, or vehicle, were added to the cells in a final volume of 100 μl. After incubating at 37° C. for 90 min, 50 μl of cell culture media was transferred to a clear 96-well plate, incubated with 50 μl of lactate dehydrogenase (LDH) assay reagent for 10 min, and absorbance measured at 490 nm on a microplate reader.
(§3) Renal toxicity was measured after 90 minutes of incubation, while liver toxicity was measured after 48 hours of incubation with StAMPs. N/A=not tested.

[2] = 48 hours cytotoxicity assay (CellTiter-Glo), liver toxicity; format: cell-based, human
From the text: as §1, with “hepatic” for “renal”, “human liver cells (e.g., HepG2)” for “renal proximal tubule epithelial cell (RPTEC) renal”
as §2
48 hours cytotoxicity assay: Cells were plated in a 96-well format, and after 4 hour incubation to allow attachment, serial dilutions of StAMPs from a 5 mg/mL water stock, or vehicle, were then added to the cells in a final volume of 100 μl. After incubating at 37° C. for 48 hours, 100 μl of CellTiter-Glo® reagent was added to the cells, and the plates were incubated 10 minutes at room temperature. Luminescence was then measured on a microplate reader.
as §3

| SMILES | IC50 [1] | IC50 [2] |
| --- | --- | --- |
| CC[C@H](C)[C@H](NC(=O)CN)C(=O)N[C@@H](Cc1ccccc1)C(=O)N[C@@H](CO)C(=O)N[C@@H](CCCCN)C(=O)N[C@@H](CC(C)C)C(=O)N[C@@H](C)C(=O)NCC(=O)N[C@@H](CCCCN)C(=O)N[C@@H](CCCCN)C(=O)N[C@H](C(=O)N[C@@H](CCCCN)C(=O)N[C@H]1CSCc2cccc(c2)CSC[C@@H](C(=O)NCC(=O)N[C@@H](CC(C)C)C(=O)N[C@@H](CCCCN)C(=O)NCC(N)=O)NC(=O)[C@H]([C@@H](C)CC)NC(=O)[C@H](CC(C)C)NC(=O)[C@H](CC(C)C)NC1=O)[C@@H](C)CC [compound 23] (H-GIFSKLAGKKIKCLLICGLKG-NH2; linker 13-17 via mXylylene; N-terminus assumed) | 52 µg/mL (≈ 22.7 µM) | 97 µg/mL (≈ 42.3 µM) |
| CC[C@H](C)[C@H](NC(=O)CN)C(=O)N[C@@H](Cc1ccccc1)C(=O)N[C@@H](CO)C(=O)N[C@@H](CCCCN)C(=O)N[C@@H](CC(C)C)C(=O)N[C@@H](C)C(=O)NCC(=O)N[C@@H](CCCCN)C(=O)N[C@@H](CCCCN)C(=O)N[C@H](C(=O)N[C@@H](CCCCN)C(=O)N[C@H]1CSCc2ccc(cc2)CSC[C@@H](C(=O)NCC(=O)N[C@@H](CC(C)C)C(=O)N[C@@H](CCCCN)C(=O)NCC(N)=O)NC(=O)[C@H]([C@@H](C)CC)NC(=O)[C@H](CC(C)C)NC(=O)[C@H](CC(C)C)NC1=O)[C@@H](C)CC [compound 24] (H-GIFSKLAGKKIKCLLICGLKG-NH2; linker 13-17 via pXylylene; N-terminus assumed) | 54 µg/mL (≈ 23.6 µM) | 103 µg/mL (≈ 44.9 µM) |
| CC[C@H](C)[C@H](NC(=O)CN)C(=O)N[C@@H](Cc1ccccc1)C(=O)N[C@@H](CO)C(=O)N[C@@H](CCCCN)C(=O)N[C@@H](CC(C)C)C(=O)N[C@@H](C)C(=O)NCC(=O)N[C@@H](CCCCN)C(=O)N[C@@H](CCCCN)C(=O)N[C@H](C(=O)N[C@@H](CCCCN)C(=O)N[C@H]1CSCC=CCSC[C@@H](C(=O)NCC(=O)N[C@@H](CC(C)C)C(=O)N[C@@H](CCCCN)C(=O)NCC(N)=O)NC(=O)[C@H]([C@@H](C)CC)NC(=O)[C@H](CC(C)C)NC(=O)[C@H](CC(C)C)NC1=O)[C@@H](C)CC [compound 25] (H-GIFSKLAGKKIKCLLICGLKG-NH2; linker 13-17 via X1; N-terminus assumed) | 200 µg/mL (≈ 89.2 µM) | 141 µg/mL (≈ 62.9 µM) |
| CC[C@H](C)[C@H](NC(=O)CN)C(=O)N[C@@H](Cc1ccccc1)C(=O)N[C@@H](CO)C(=O)N[C@@H](CCCCN)C(=O)N[C@@H](CC(C)C)C(=O)N[C@@H](C)C(=O)NCC(=O)N[C@@H](CCCCN)C(=O)N[C@@H](CCCCN)C(=O)N[C@H](C(=O)N[C@@H](CCCCN)C(=O)N[C@@H](CC(N)=O)C(=O)N[C@H]1CSCc2cccc(c2)CSC[C@@H](C(=O)N[C@@H](CC(C)C)C(=O)N[C@@H](CCCCN)C(=O)NCC(N)=O)NC(=O)[C@H](CO)NC(=O)[C@H]([C@@H](C)CC)NC(=O)[C@H](CC(C)C)NC1=O)[C@@H](C)CC [compound 26] (H-GIFSKLAGKKIKNCLISCLKG-NH2; linker 14-18 via mXylylene; N-terminus assumed) | 64 µg/mL (≈ 27.6 µM) | 44 µg/mL (≈ 18.9 µM) |
| CC[C@H](C)[C@H](NC(=O)CN)C(=O)N[C@@H](Cc1ccccc1)C(=O)N[C@@H](CO)C(=O)N[C@@H](CCCCN)C(=O)N[C@@H](CC(C)C)C(=O)N[C@@H](C)C(=O)NCC(=O)N[C@@H](CCCCN)C(=O)N[C@@H](CCCCN)C(=O)N[C@H](C(=O)N[C@@H](CCCCN)C(=O)N[C@@H](CC(N)=O)C(=O)N[C@H]1CSCc2ccc(cc2)CSC[C@@H](C(=O)N[C@@H](CC(C)C)C(=O)N[C@@H](CCCCN)C(=O)NCC(N)=O)NC(=O)[C@H](CO)NC(=O)[C@H]([C@@H](C)CC)NC(=O)[C@H](CC(C)C)NC1=O)[C@@H](C)CC [compound 27] (H-GIFSKLAGKKIKNCLISCLKG-NH2; linker 14-18 via pXylylene; N-terminus assumed) | > 200 µg/mL | > 200 µg/mL |
| CC[C@H](C)[C@H](NC(=O)CN)C(=O)N[C@@H](Cc1ccccc1)C(=O)N[C@@H](CO)C(=O)N[C@@H](CCCCN)C(=O)N[C@@H](CC(C)C)C(=O)N[C@@H](C)C(=O)NCC(=O)N[C@@H](CCCCN)C(=O)N[C@@H](CCCCN)C(=O)N[C@H](C(=O)N[C@@H](CCCCN)C(=O)N[C@@H](CC(N)=O)C(=O)N[C@H]1CSCC=CCSC[C@@H](C(=O)N[C@@H](CC(C)C)C(=O)N[C@@H](CCCCN)C(=O)NCC(N)=O)NC(=O)[C@H](CO)NC(=O)[C@H]([C@@H](C)CC)NC(=O)[C@H](CC(C)C)NC1=O)[C@@H](C)CC [compound 28] (H-GIFSKLAGKKIKNCLISCLKG-NH2; linker 14-18 via X1; N-terminus assumed) | > 200 µg/mL | > 200 µg/mL |
| CC[C@H](C)[C@H](NC(=O)CN)C(=O)N[C@@H](Cc1ccccc1)C(=O)N[C@@H](CO)C(=O)N[C@@H](CCCCN)C(=O)N[C@@H](CC(C)C)C(=O)N[C@@H](C)C(=O)NCC(=O)N[C@@H](CCCCN)C(=O)N[C@@H](CCCCN)C(=O)N[C@H](C(=O)N[C@@H](CCCCN)C(=O)N[C@@H](CC(N)=O)C(=O)N[C@@H](CC(C)C)C(=O)N[C@@H](CC(C)C)C(=O)N[C@H]1CSCC=CCSC[C@@H](C(=O)NCC(N)=O)NC(=O)[C@H](CC(C)C)NC(=O)CNC(=O)[C@H](CO)NC1=O)[C@@H](C)CC [compound 34] (H-GIFSKLAGKKIKNLLCSGLCG-NH2; linker 16-20 via X1; N-terminus assumed) | ~200 µg/mL (≈ 90.8 µM) | 119 µg/mL (≈ 54 µM) |
| CC[C@H](C)[C@H](NC(=O)CN)C(=O)N[C@@H](Cc1ccccc1)C(=O)N[C@@H](CO)C(=O)N[C@@H](CCCCN)C(=O)N[C@@H](CC(C)C)C(=O)N[C@@H](C)C(=O)NCC(=O)N[C@@H](CCCCN)C(=O)N[C@@H](CCCCN)C(=O)N[C@H](C(=O)N[C@@H](CCCCN)C(=O)N[C@@H](CC(N)=O)C(=O)N[C@@H](CC(C)C)C(=O)N[C@@H](CC(C)C)C(=O)N[C@H](C(=O)N[C@H]1CSCC=CCSC[C@@H](C(N)=O)NC(=O)[C@H](CCCCN)NC(=O)[C@H](CC(C)C)NC(=O)CNC1=O)[C@@H](C)CC)[C@@H](C)CC [compound 35] (H-GIFSKLAGKKIKNLLICGLKC-NH2; linker 17-21 via X1; N-terminus assumed) | ~200 µg/mL (≈ 87 µM) | ~200 µg/mL (≈ 87 µM) |
| CC[C@H](C)[C@H](NC(=O)[C@H](CC(C)C)NC(=O)[C@H](CC(C)C)NC(=O)[C@H](CC(N)=O)NC(=O)[C@H](CCCCN)NC(=O)[C@@H](NC(=O)[C@H](CCCCN)NC(=O)[C@H](CCCCN)NC(=O)CNC(=O)[C@H](C)NC(=O)[C@H](CC(C)C)NC(=O)[C@@H]1CSCc2cccc(c2)CSC[C@H](N)C(=O)N[C@@H]([C@@H](C)CC)C(=O)N[C@@H](Cc2ccccc2)C(=O)N[C@@H](CO)C(=O)N1)[C@@H](C)CC)C(=O)N[C@@H](CO)C(=O)NCC(=O)N[C@@H](CC(C)C)C(=O)N[C@@H](CCCCN)C(=O)NCC(N)=O [compound 36] (H-CIFSCLAGKKIKNLLISGLKG-NH2; linker 1-5 via mXylylene; N-terminus assumed) | ~200 µg/mL (≈ 86.7 µM) | 75 µg/mL (≈ 32.5 µM) |
| CC[C@H](C)[C@H](NC(=O)[C@H](CC(C)C)NC(=O)[C@H](CC(C)C)NC(=O)[C@H](CC(N)=O)NC(=O)[C@H](CCCCN)NC(=O)[C@@H](NC(=O)[C@H](CCCCN)NC(=O)[C@H](CCCCN)NC(=O)CNC(=O)[C@H](C)NC(=O)[C@H](CC(C)C)NC(=O)[C@@H]1CSCc2ccc(cc2)CSC[C@H](N)C(=O)N[C@@H]([C@@H](C)CC)C(=O)N[C@@H](Cc2ccccc2)C(=O)N[C@@H](CO)C(=O)N1)[C@@H](C)CC)C(=O)N[C@@H](CO)C(=O)NCC(=O)N[C@@H](CC(C)C)C(=O)N[C@@H](CCCCN)C(=O)NCC(N)=O [compound 37] (H-CIFSCLAGKKIKNLLISGLKG-NH2; linker 1-5 via pXylylene; N-terminus assumed) | 140 µg/mL (≈ 60.7 µM) | 33 µg/mL (≈ 14.3 µM) |
